Data published in ChEMBL document CHEMBL2046380, “Synthesis and structure-activity relationship of disubstituted benzamides as a novel class of antimalarial agents” (Bioorg Med Chem Lett, 2012).

Assays:
[1] = test system: Plasmodium falciparum; assay: Antimalarial activity against chloroquine-sensitive Plasmodium falciparum 3D7 incubated for 72 hrs by DNA staining based MAR3D7 growth inhibition assay; format: functional, organism-based; conditions: 3D7, 72 h
[2] = test system: Raji; assay: Cytotoxicity against human Raji cells after 72 hrs by […] CellTiterGlo reagent assay; format: cell-based
[3] = test system: HepG2; assay: Cytotoxicity against human HepG2 cells after 72 hrs by […] CellTiterGlo reagent assay; format: cell-based; conditions: HepG2, 72 h
[4] = test system: HEK293; assay: Cytotoxicity against human HEK293 cells after 72 hrs by […] CellTiterGlo reagent assay; format: cell-based; conditions: HEK293, 72 h
[5] = test system: Plasmodium falciparum; assay: Antimalarial activity against […] incubated for 72 hrs by DNA staining based MARK1 growth inhibition assay; format: functional, organism-based
[6] = test system: BJ; assay: Cytotoxicity against human BJ cells after 72 hrs by […] CellTiterGlo reagent assay; format: cell-based

CC(C)N(Cc1cccc(OCCCCCC(=O)O)c1)C(=O)c1ccc(-c2cccc(-c3ccccc3)c2)cc1
EC50 [1]: > 15 µM
EC50 [2]: > 26 µM
EC50 [3]: > 26 µM
EC50 [4]: > 26 µM
EC50 [5]: > 15 µM
EC50 [6]: > 26 µM

CCOC(=O)CCCCCOc1cccc(CN(C(=O)c2ccc(-c3cccc(Oc4ccccc4)c3)cc2)C(C)C)c1
EC50 [1]: > 10.9 µM
EC50 [2]: > 19.7 µM
EC50 [3]: > 26 µM
EC50 [4]: > 19.7 µM
EC50 [5]: > 10.9 µM
EC50 [6]: > 19.7 µM

CCOC(=O)CCCCCOc1cccc(CN(C(=O)c2ccc(-c3ccncc3)cc2)C(C)C)c1
EC50 [1]: < 0.0008 µM
EC50 [2]: > 26 µM
EC50 [3]: > 26 µM
EC50 [4]: > 26 µM
EC50 [5]: 0.0008 µM
EC50 [6]: > 26 µM

CCOC(=O)CCCCCOc1ccccc1C=O
EC50 [1]: > 15 µM
EC50 [2]: > 26 µM
EC50 [3]: > 26 µM
EC50 [4]: > 26 µM
EC50 [5]: > 15 µM
EC50 [6]: > 26 µM

CCOC(=O)CCCCCOc1cccc(CN(C(=O)c2ccc(-c3cccc(OCC)c3)cc2)C(C)C)c1
EC50 [1]: > 12.4 µM
EC50 [2]: > 22.4 µM
EC50 [3]: > 22.4 µM
EC50 [4]: > 22.4 µM
EC50 [5]: > 12.4 µM
EC50 [6]: > 22.4 µM

CC(C)COc1cccc(-c2ccc(C(=O)N(Cc3cccc(OCCCCCC(=O)O)c3)C(C)C)cc2)c1
EC50 [1]: > 15 µM
EC50 [2]: > 26 µM
EC50 [3]: > 26 µM
EC50 [4]: > 26 µM
EC50 [5]: > 15 µM
EC50 [6]: > 26 µM

CC(C)N(Cc1cccc(OCCCCCC(=O)O)c1)C(=O)c1ccc(-c2c[nH]c3ccccc23)cc1
EC50 [1]: > 15 µM
EC50 [2]: > 26 µM
EC50 [3]: > 26 µM
EC50 [4]: > 26 µM
EC50 [5]: > 15 µM
EC50 [6]: > 26 µM

CCOC(=O)CCCCCOc1cccc(CN(C(=O)c2ccc(-c3ccc4cc[nH]c4c3)cc2)C(C)C)c1
EC50 [1]: > 15 µM
EC50 [2]: > 26 µM
EC50 [3]: > 26 µM
EC50 [4]: > 26 µM
EC50 [5]: > 15 µM
EC50 [6]: > 26 µM

CC(C)N(Cc1cccc(OCCCCCC(=O)O)c1)C(=O)c1ccc(-c2ccncc2)cc1
EC50 [1]: 0.567 µM
EC50 [2]: > 26 µM
EC50 [3]: > 26 µM
EC50 [4]: > 26 µM
EC50 [5]: 0.52 µM
EC50 [6]: > 26 µM

CCOC(=O)CCCCCOc1ccc(C(O)O)cc1
EC50 [1]: > 15 µM
EC50 [2]: > 27.2 µM
EC50 [3]: > 27.2 µM
EC50 [4]: > 27.2 µM
EC50 [5]: > 15 µM
EC50 [6]: > 27.2 µM

CC(C)N(Cc1cccc(OCCCCCC(=O)O)c1)C(=O)c1ccc(-c2cccc(C(F)(F)F)c2)cc1
EC50 [1]: > 15 µM
EC50 [2]: > 26 µM
EC50 [3]: > 26 µM
EC50 [4]: > 26 µM
EC50 [5]: > 15 µM
EC50 [6]: > 26 µM

CCOC(=O)CCCCCOc1cccc(CN(C(=O)c2ccc(-c3ccoc3)cc2)C(C)C)c1
EC50 [1]: > 15 µM
EC50 [2]: > 26 µM
EC50 [3]: > 26 µM
EC50 [4]: > 26 µM
EC50 [5]: > 15 µM
EC50 [6]: > 26 µM

CCOC(=O)CCCCCOc1cccc(CN(C(=O)c2ccc(-c3cc(OC)cc(OC)c3)cc2)C(C)C)c1
EC50 [1]: > 15 µM
EC50 [2]: > 26 µM
EC50 [3]: > 26 µM
EC50 [4]: > 26 µM
EC50 [5]: > 15 µM
EC50 [6]: > 26 µM
